Assay results taken from US8492442B2, “Medicinal composition, food or drink having effect of enhancing parasympathetic nervous activity” (Suntory Holdings Limited, priority 2007, dated 2013).
Entries after “also recorded” stand apart in the source; their conditions may differ.

Experiments:
[1] = tested on: stomach vagal (parasympathetic) nervous activity; experiment: Rat stomach vagal (parasympathetic) nervous activity after transduodenal administration; format: in vivo; conditions: 100 μg, FIG. 5
blood pressure = experiment: Rat blood pressure after transduodenal administration (femoral artery cannula, transducer); format: in vivo; conditions: 100 μg, FIG. 4
[2] = tested on: kidney sympathetic nervous activity; experiment: Rat kidney sympathetic nervous activity after transduodenal administration (electrical discharge recording); format: in vivo; conditions: male Wister rats, urethane-anesthesia
Experimental: In these experiments, use was made of male Wister rats weighing about 300 to 350 g which had been preliminarily fed in a thermostatic chamber (24° C.) with a light-dark cycle of 12-hour intervals (under illumination from 8:00 to 20:00) for 1 week or longer. A single rat was employed for each nervous experiment. The animals were fed with a feed (MF: Oriental Yeast) and water ad libitum. The autonomic nervous activity were examined by fasting the rats for 5 hours on the day of the experiment and then subjecting to an abdominal surgery under urethane-anesthesia (1 g/kg, i.p.). Then, the effects of the transduodenal administration of L-phenyl lactic acid and D-phenyl lactic acid (10 μg or 100 μg) on the kidney sympathetic nervous activity were measured in accordance with the method reported by T. Yamano et al., Neurosci. Lett. 313:78-82 (2001), A. Niijima et al., Autonom. Neurosci.: Basic & Clinical 97:99-102 (2002) and M. Tanida et al., Am. J. Physiol: Regulatory, Integrative and Comparative Physiology 288:R447-R455 (2005). Namely, the sympathetic nerve projecting toward the kidney was cut before the organ and the central side was placed on a silver electrode. Thus, a change in the electrical activity was monitored. To prevent dryness, the electrode had been preliminarily dipped in a mixture of liquid paraffin and petroleum jelly for a sufficient period of time. From the initiation of the surgery to the completion of the measurement, a tube was inserted into the respiratory tract for the management of the airway. The body temperature (rat rectal temperature) was maintained at 35±0.5° C. with the use of a heater. The transduodenal administration was conducted by dissolving L-phenyl lactic acid or D-phenyl lactic acid in physiological saline to give a concentration of 10 μg/2 ml or 100 μg/2 ml, and administering 2 ml/animal of each solution at a rate of 1 ml/min through a polyethylene tube inserted into the duodenum. Electrical nervous activity thus obtained were amplified with a condenser type differential amplifier, monitored with an oscilloscope and recorded on a magnetic tape. To separate the raw data from the background noise, all of the nervous activities were converted into standard pulses by use of a slicer and a window discriminator before analyzing. Discharge frequencies were indicated on a pen recorder by using a rate meter at a reset time of 5 seconds. The data was analyzed based on the average discharge frequency per 5 seconds (pulse/5 sec) and expressed in percentage by referring the level before the administration as to 100%. A group with the administration of physiological saline was employed as a control.

[3] = tested on: methicillin-resistant Staphylococcus aureus; conditions: phenyl lactic acid produced by use of a lactic acid bacterium; cited from earlier work
Aspergillus niger = conditions: etc.; cited from earlier work
[4] = tested on: pathogenic Escherichia coli O-157; conditions: phenyl lactic acid produced by use of a lactic acid bacterium; cited from earlier work

SMILES | effect on rat stomach vagal (parasympathetic) nervous activity [1] | effect on rat blood pressure (blood pressure) | effect on kidney sympathetic nervous activity ([2]; 10 μg/animal, FIG. 2) | effect on kidney sympathetic nervous activity ([2]; 100 μg/animal, FIG. 3) | antibacterial effect [3] | antifungal activity (Aspergillus niger) | antibacterial effect [4]
O=C(O)[C@@H](O)Cc1ccccc1 [L-phenyl lactic acid, L-β-3-phenyl lactic acid] | enhancement | hypotensive effects | little effect | reduced; also recorded: higher reducing effect |  |  | 
O=C(O)[C@H](O)Cc1ccccc1 [D-phenyl lactic acid, D-β-3-phenyl lactic acid] |  | hypotensive effects | enhanced | reduced |  |  | 
O=C(O)C(O)Cc1ccccc1 (stereo not shown) [phenyl lactic acid, 2-hydroxy-3-phenyl propionic acid] |  |  |  |  | antibacterial effect | antifungal activity | antibacterial effect
